According to patent EP3048886B1, “3, 4-BIS-BENZYLSULFONYLBUTANENITRILE AND ITS PHARMACEUTICAL USE” (Olatec Therapeutics LLC, priority 2013, dated 2015):

Assays:
[1] = tested on: arachidonic acid-induced ear swelling; assay: topical arachidonic acid-induced ear swelling model in mice; format: in vivo; settings: inhibition of ear swelling vs vehicle, male ICR mice; topical application 30 min before and 15 min after arachidonic acid; measured at 90 minutes after arachidonic acid application
Method: The test compound, indomethacin (positive control), and vehicle were evaluated for anti-inflammatory activity in a topical arachidonic acid-induced ear swelling model in mice.
Male ICR mice weighing 22 ± 2 g were used and randomly divided; the test compound and vehicle control had 10 mice, and indomethacin had 5 mice. Arachidonic Acid (0.5 mg in 20 µl of acetone:ethanol/1:1) was applied topically to the anterior and posterior surfaces of the right ear of each mouse. Test substances and vehicle, as listed in Table 2 were similarly applied 30 min before and 15 min after arachidonic acid application. The thickness of the right ear and the left ear was measured and the difference calculated as an indication of the inflammation in the right ear. Ear swelling was measured by a Dyer model micrometer gauge at 60 and 90 minutes after arachidonic acid application as an index of inflammation. Percent inhibition was calculated according to the formula: Ic - It/Ic x 100, where Ic and It refers to increase of ear thickness (mm) in control and treated mice, respectively. ANOVA and Dunnett's test were employed to ascertain significant difference between vehicle control and treated groups. Significance is set at P<0.05 level.

[2] = tested on: tail flick reaction to heat; assay: tail flick test (49°C water bath) in mice; settings: mouse, in vivo
Method: The tail flick test is a test of the pain response in animals. The tail flick test is used in basic pain research and to measure the effectiveness of analgesics, by observing the tail flick reaction to heat in an animal. This test assesses the nociceptive response to a local pain stimulus, and the ability of a drug to inhibit this response.
Vehicle control (DMSO) and test compound 3,4-bis-benzylsulfonylbutanenitrile in DMSO were administered by oral gavage to mice with a volume of 5 mL/kg, immediately prior to testing, at time zero. The test compound was administered at a dosage of 500 mg/kg in DMSO. Positive control morphine in water was administered at time zero by subcutaneous injection at 8 mg/kg to mice. […] The purpose of morphine is not to serve as a comparison with the test compound. Each group had 10 mice.
The response of mice to heat stimulus was evaluated by measuring the time of tail-flick or tail-flick latency from 49°C water bath. Briefly, the animal was held with its tail hanging down. Approximately 5.08 cm (2 inches) of the tail was immersed in a beaker of water at 38±1 °C for about 30 seconds, and this was done twice to acclimate the animal to the procedure.
Subsequently, approximately 5.08 cm (2 inches) of the tail was immersed in a beaker of water at 49±1 °C, at which point a timer was started. […]

| Structure (SMILES) | % Inhibition [1] [%] | tail flick latency compared with vehicle-treated mice [2] |
| --- | --- | --- |
| N#CCC(CS(=O)(=O)Cc1ccccc1)S(=O)(=O)Cc1ccccc1 (centres unmarked) [3,4-bis-benzylsulfonylbutanenitrile] | 34 |  |
| CN1CC[C@]23c4c5ccc(O)c4O[C@H]2[C@@H](O)C=C[C@H]3[C@H]1C5 [morphine] |  | not |
